The target of the experiment is T1, PolyNic (polygenomic nicotinamidase).
T1 construct: 588 bp PCR product in pET-46 Ek/LIC, expressed in E. coli Rosetta 2 (DE3); dimer
The experiment in a line: HPLC nicotinamidase assay, Morrison fit, NAM as substrate (Ki […] with PZA as substrate). Type of experiment: biochemical.

Broadly, the Ki is the equilibrium dissociation constant of an inhibitor or competing ligand from its target. Higher therefore signals a looser hold on the target.

`O=Cc1cccnc1` [nicotinaldehyde] had a Ki of 180 nM.
